Experimental data from patent publication EP0072121A1, “Beta-lactam antibiotics” (BEECHAM GROUP PLC, priority 1981, dated 1983).
Values after ≈ are worked out from the molar mass of the structure shown.

Columns and labels:
Experiment in all cases: standard MIC test
Assay type in all cases: cell-based
[1] = test system: Pseudomonas aeruginosa A [11]
Source text: (§1) In a standard MIC test the compound of Examples 1 and 2 afforded the following data (µg/ml).

[2] = test system: Escherichia coli JT39 [E96]
Source text: as §1

Shigella sonnei MB11967 = test system: Shigella sonnei MB11967
Source text: as §1

Citrobacter freundii E8 = test system: Citrobacter freundii E8
Source text: as §1

[3] = test system: Staphylococcus aureus Russell MB9
Source text: as §1

[4] = test system: Klebsiella aerogenes A [T767]
Source text: as §1

[5] = test system: Staphylococcus aureus 1517
Source text: as §1

Proteus rettgeri WM16 = conditions: Providencia rettgeri
Source text: as §1

Pseudomonas Dalgleish = test system: Pseudomonas Dalgleish
Source text: as §1

[6] = test system: Staphylococcus aureus Oxford
Source text: as §1

Escherichia coli ESS = test system: Escherichia coli ESS
Source text: as §1

Proteus vulgaris W091 = test system: Proteus vulgaris W091
Source text: as §1

Bacillus subtilis A = test system: Bacillus subtilis A
Source text: as §1

[7] = test system: Streptococcus pneumoniae CN33
Source text: as §1

Streptocuccus faecalis I = test system: Streptocuccus faecalis I
Source text: as §1

[8] = test system: Escherichia coli O111 [E8]
Source text: as §1

[9] = test system: Enterobacter cloacae N1 [T753]
Source text: as §1

Proteus morganii 1580 = conditions: Morganella morganii
Source text: as §1

Escherichia coli JT20 = test system: Escherichia coli JT20
Source text: as §1

[10] = test system: Streptocuccus pyogenes CN10
Source text: as §1

[11] = test system: Klebsiella aerogenes Ba95
Source text: as §1

Escherichia coli JT410 = test system: Escherichia coli JT410
Source text: as §1

[12] = test system: Proteus mirabilis 977 [13]
Source text: as §1

[13] = test system: Salmonella typhimurium CT10; conditions: Salmonella enterica
Source text: as §1

CC(=N)NCCOC(=O)/C=C\SC1=C(C(=O)O)N2C(=O)[C@@H]([C@H](C)O)[C@H]2C1 [Ex.1, (5R,6R)-3-[(Z)-2-Acetimidoylaminoethyloxycarbonyl-ethenylthio]-6-[(S)-1-hydroxyethyl]-7-oxo-1-azabicyclo[3.2.0]hept-2-ene-2-carboxylic acid]
MIC [1]: 25 µg/mL (≈ 65.2 µM)
MIC [2]: 0.2 µg/mL (≈ 0.522 µM)
MIC (Shigella sonnei MB11967): 0.2 µg/mL (≈ 0.522 µM)
MIC (Citrobacter freundii E8): 0.4 µg/mL (≈ 1.04 µM)
MIC [3]: ≤ 0.1 µg/mL
MIC [4]: 0.2 µg/mL (≈ 0.522 µM)
MIC [5]: 0.8 µg/mL (≈ 2.09 µM)
MIC (Proteus rettgeri WM16): 1.6 µg/mL (≈ 4.17 µM)
MIC (Pseudomonas Dalgleish): 25 µg/mL (≈ 65.2 µM)
MIC [6]: ≤ 0.1 µg/mL
MIC (Escherichia coli ESS): ≤ 0.1 µg/mL
MIC (Proteus vulgaris W091): 3.1 µg/mL (≈ 8.09 µM)
MIC (Bacillus subtilis A): ≤ 0.1 µg/mL
MIC [7]: ≤ 0.1 µg/mL
MIC (Streptocuccus faecalis I): ≤ 0.1 µg/mL
MIC [8]: 0.2 µg/mL (≈ 0.522 µM)
MIC [9]: 3.1 µg/mL (≈ 8.09 µM)
MIC (Proteus morganii 1580): 1.6 µg/mL (≈ 4.17 µM)
MIC (Escherichia coli JT20): 3.1 µg/mL (≈ 8.09 µM)
MIC [10]: ≤ 0.1 µg/mL
MIC [11]: 3.1 µg/mL (≈ 8.09 µM)
MIC (Escherichia coli JT410): 0.2 µg/mL (≈ 0.522 µM)
MIC [12]: 0.4 µg/mL (≈ 1.04 µM)
MIC [13]: 0.2 µg/mL (≈ 0.522 µM)

CC(=N)NCCOC(=O)/C=C\SC1=C(C(=O)O)N2C(=O)[C@H]([C@@H](C)O)[C@H]2C1 [Ex.2, (5R,6S)-3-[(S)-2-Acetimidoylaminoethyloxycarbonyl-ethenylthio]-6-[(R)-1-hydroxyethyl]-7-oxo-1-azabicyclo [3.2.0]hept-2-ene-2-carboxylic acid]
MIC [1]: 25 µg/mL (≈ 65.2 µM)
MIC [2]: 0.2 µg/mL (≈ 0.522 µM)
MIC (Shigella sonnei MB11967): 0.2 µg/mL (≈ 0.522 µM)
MIC (Citrobacter freundii E8): 0.4 µg/mL (≈ 1.04 µM)
MIC [3]: ≤ 0.1 µg/mL
MIC [4]: 0.2 µg/mL (≈ 0.522 µM)
MIC [5]: 1.6 µg/mL (≈ 4.17 µM)
MIC (Proteus rettgeri WM16): 0.8 µg/mL (≈ 2.09 µM)
MIC (Pseudomonas Dalgleish): 25 µg/mL (≈ 65.2 µM)
MIC [6]: ≤ 0.1 µg/mL
MIC (Escherichia coli ESS): 0.2 µg/mL (≈ 0.522 µM)
MIC (Proteus vulgaris W091): 0.8 µg/mL (≈ 2.09 µM)
MIC (Bacillus subtilis A): < 0.1 µg/mL
MIC (Streptocuccus faecalis I): 0.2 µg/mL (≈ 0.522 µM)
MIC [8]: 0.2 µg/mL (≈ 0.522 µM)
MIC [9]: 0.8 µg/mL (≈ 2.09 µM)
MIC (Proteus morganii 1580): 1.6 µg/mL (≈ 4.17 µM)
MIC (Escherichia coli JT20): 0.2 µg/mL (≈ 0.522 µM)
MIC [11]: 0.4 µg/mL (≈ 1.04 µM)
MIC (Escherichia coli JT410): 0.2 µg/mL (≈ 0.522 µM)
MIC [12]: 0.8 µg/mL (≈ 2.09 µM)
MIC [13]: 0.2 µg/mL (≈ 0.522 µM)
